Paper PMC10338470, “Phase 1 study of GSK3368715, a type I PRMT inhibitor, in patients with advanced solid tumors” (British Journal of Cancer, 2023)

Tests used:
global ADMA levels = system: global ADMA levels; set-up: method as in PMID 31257072; settings: preclinical cancer models ref [6]; cited from earlier work
[1] = system: ADMA-R225-hnRNP-A1 in tumor biopsies; assay: Tumor biopsy ADMA-R225-hnRNP-A1 by IHC (formalin-fixed); format: in vivo, human; settings: 100-mg dose level, day 15; in 4/8 patients
Experimental: Tumor cell and plasma target engagement PD biomarkers were assessed in the dose-escalation cohort on days 1, 8, 15, and 22. In the PK/PD cohort, urine for PK and metabolite profiling was collected postdose on day 1 and through 48 h postdose on day 2, and for 24 h postdose on day 15. Participants underwent an on-treatment tumor biopsy on day 15. Asymmetric arginine 225 (R225) methylation of heterogeneous nuclear ribonucleoprotein A1 (hnRNP-A1) was identified as a target engagement PD of type I PRMT inhibition; treatment with GSK3368715 results in the reduction of asymmetric dimethylarginine 225 (ADMA-R225) on hnRNP-A1 protein in cancer cell lines and peripheral blood mononuclear cells (PBMCs). Noto et al. describe in detail the identification of hnRNP-A1 as a pharmacodynamic biomarker of type I PRMT inhibition, and the development of novel methodologies to accurately and precisely quantitate changes in the levels of ADMA on hnRNP-A1 in both blood and tumor compartments. Levels of ADMA-R225-hnRNP-A1 were measured in fresh frozen and formalin-fixed paired biopsies by liquid chromatography-mass spectrometry (LC-MS) and immunohistochemistry (IHC).

protein SDMA = assay: Protein SDMA in formalin-fixed paired tumor biopsies; format: in vivo, human
[2] = Safety margins of starting dose from toxicity studies in dogs; format: in vivo; settings: 50 mg starting dose
[3] = system: advanced-stage solid tumors; assay: Best overall response per RECIST 1.1; format: in vivo, human
Experimental: Adverse events were coded using the standard MedDRA groupings and graded according to NCI-CTCAE version 5.0. Clinical chemistry, urinalysis, and coagulation tests were performed predose on days 1, 8, 15, 22, and weekly thereafter. Tumor imaging occurred every 8 weeks until week 33, and then every 16 weeks thereafter. Adverse events and DLTs were summarized descriptively by dose cohort. Pharmacokinetic parameters of GSK3368715 and its metabolites (GSK3963583 and GSK3983164) were estimated in the PK/PD population (all participants for whom a PK sample was obtained) using a noncompartmental analysis model (WinNonlin version 8.1) and summarized descriptively. Best overall response as per RECIST 1.1 was summarized descriptively by dose cohort. Levels of tumor cell and plasma pharmacodynamic biomarkers were also summarized descriptively.

Structure (SMILES): CCOCC1(COCC)CCC(c2[nH]ncc2CN(C)CCNC)CC1 [GSK3368715]
- Time of maximal decreases in global ADMA levels (global ADMA levels): 72 h
- Mean reduction of ADMA-hnRNP-A1 in tumor biopsies by IHC (SE 9.36) [1]: 2.08%
- Patients with increased protein SDMA in formalin-fixed paired biopsies (protein SDMA; 7/8 patients): 88%
- Median increase of protein SDMA in formalin-fixed paired biopsies (protein SDMA; range −28 to 155%): 48.9%
- Safety margin for the steady state AUC [2]: 16 fold
- Safety margin for the steady state Cmax [2]: 33 fold
- Best response: Complete response ([3]; 50 mg (n = 3)): 0 n (%)
- Best response: Missing ([3]; 50 mg (n = 3)): 0 n (%)
- Best response: Not evaluable ([3]; 50 mg (n = 3)): 1 (33) n (%)
- Best response: Partial response ([3]; 50 mg (n = 3)): 0 n (%)
- Best response: Progressive disease ([3]; 50 mg (n = 3)): 2 (67) n (%)
- Best response: Stable disease ([3]; 50 mg (n = 3)): 0 n (%)
- Overall response rate: Complete response + partial response ([3]; 50 mg (n = 3)): 0 n (%)
- Best response: Complete response ([3]; 100 mg (n = 16)): 0 n (%)
- Best response: Missing ([3]; 100 mg (n = 16)): 0 n (%)
- Best response: Not evaluable ([3]; 100 mg (n = 16)): 0 n (%)
- Best response: Partial response ([3]; 100 mg (n = 16)): 0 n (%)
- Best response: Progressive disease ([3]; 100 mg (n = 16)): 10 (63) n (%)
- Best response: Stable disease ([3]; 100 mg (n = 16)): 6 (38) n (%)
- Overall response rate: Complete response + partial response ([3]; 100 mg (n = 16)): 0 n (%)
- Best response: Complete response ([3]; 200 mg (n = 12)): 0 n (%)
- Best response: Missing ([3]; 200 mg (n = 12)): 3 (25) n (%)
- Best response: Not evaluable ([3]; 200 mg (n = 12)): 0 n (%)
- Best response: Partial response ([3]; 200 mg (n = 12)): 0 n (%)
- Best response: Progressive disease ([3]; 200 mg (n = 12)): 6 (50) n (%)
- Best response: Stable disease ([3]; 200 mg (n = 12)): 3 (25) n (%)
- Overall response rate: Complete response + partial response ([3]; 200 mg (n = 12)): 0 n (%)
- Patients with stable disease among patients with MTAP gene deletion ([3]; 6 patients with MTAP gene deletion): 2
- Patients with progressive disease among patients with MTAP gene deletion ([3]; 6 patients with MTAP gene deletion, treatment exposure 15 days to 37 days): 4
- Best response: Complete response ([3]; Total (N = 31)): 0 n (%)
- Best response: Missing ([3]; Total (N = 31)): 3 (10) n (%)
- Best response: Not evaluable ([3]; Total (N = 31)): 1 (3) n (%)
- Best response: Partial response ([3]; Total (N = 31)): 0 n (%)
- Best response: Progressive disease ([3]; Total (N = 31)): 18 (58) n (%)
- Best response: Stable disease ([3]; Total (N = 31)): 9 (29) n (%)
- Disease stability, patients ([3]; all dose groups): 29%
